From patent US9796711B2, “Substituted pyrazolo[3,4-b]pyridin-6-carboxylic acids and method of use” (AbbVie S.àr.l., priority 2015, dated 2017) come the findings set out here.

Experiment [1] has as its target T1, ΔF508-CFTR (Homo sapiens, UniProt P13569, DEL508-508).
T1 construct: host or cells: CFBE41o-, doxycycline-inducible
In words: CFTR cell surface levels using HRP-tagged ΔF508-CFTR expressing CFBE cells, in the presence of a co-corrector. In kind it is cell-based. Particulars: HRP-tagged ΔF508-CFTR expressing CFBE cells, in the presence of 3 μM co-corrector; for EC50: read-out: EC50. The procedure, abridged:
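Cells were seeded with 0.5 μg/mL doxycycline and held 68 h at 37 °C. Test compounds plus 3 μM co-corrector (final 0.1% DMSO) were then added for 20 h at 33 °C. Washed cells received HRP substrate, and luminescence was normalized between DMSO and 3 μM co-corrector controls.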

For experiment [2], the target named is T1, ΔF508-CFTR. The experiment in a line: CFTR cell surface levels using HRP-tagged ΔF508-CFTR expressing CFBE cells, intrinsic corrector capacity. The class given is cell-based. Particulars: for EC50: read-out: EC50. The procedure, abridged:
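Here the cells express ΔF508-CFTR with horseradish peroxidase inserted in extracellular loop 4, so only rescued channel at the surface gives luminescent signal. Compounds act on their own, 20 h at the reduced temperature of 33 °C; values are percent activity relative to DMSO and a 3 μM corrector.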

The mark [3] stands for this setting: HRP-tagged ΔF508-CFTR expressing CFBE cells, intrinsic corrector capacity (no co-corrector), 33° C., 20 hours.
[4] abbreviates: HRP-tagged ΔF508-CFTR CFBE41o- cells, compounds alone (intrinsic corrector capacity), 20 hours at 33° C., positive control 3 μM corrector.
The mark [5] stands for this setting: HRP-tagged ΔF508-CFTR CFBE41o- cells, compounds alone (intrinsic corrector capacity), 20 hours at 33° C.
Where [6] appears, read: HRP-tagged ΔF508-CFTR CFBE cells, compound alone (intrinsic corrector capacity), 20 hours at 33° C.

T1 sequence (P13569 with tags, fused parts or gaps DEL508-508): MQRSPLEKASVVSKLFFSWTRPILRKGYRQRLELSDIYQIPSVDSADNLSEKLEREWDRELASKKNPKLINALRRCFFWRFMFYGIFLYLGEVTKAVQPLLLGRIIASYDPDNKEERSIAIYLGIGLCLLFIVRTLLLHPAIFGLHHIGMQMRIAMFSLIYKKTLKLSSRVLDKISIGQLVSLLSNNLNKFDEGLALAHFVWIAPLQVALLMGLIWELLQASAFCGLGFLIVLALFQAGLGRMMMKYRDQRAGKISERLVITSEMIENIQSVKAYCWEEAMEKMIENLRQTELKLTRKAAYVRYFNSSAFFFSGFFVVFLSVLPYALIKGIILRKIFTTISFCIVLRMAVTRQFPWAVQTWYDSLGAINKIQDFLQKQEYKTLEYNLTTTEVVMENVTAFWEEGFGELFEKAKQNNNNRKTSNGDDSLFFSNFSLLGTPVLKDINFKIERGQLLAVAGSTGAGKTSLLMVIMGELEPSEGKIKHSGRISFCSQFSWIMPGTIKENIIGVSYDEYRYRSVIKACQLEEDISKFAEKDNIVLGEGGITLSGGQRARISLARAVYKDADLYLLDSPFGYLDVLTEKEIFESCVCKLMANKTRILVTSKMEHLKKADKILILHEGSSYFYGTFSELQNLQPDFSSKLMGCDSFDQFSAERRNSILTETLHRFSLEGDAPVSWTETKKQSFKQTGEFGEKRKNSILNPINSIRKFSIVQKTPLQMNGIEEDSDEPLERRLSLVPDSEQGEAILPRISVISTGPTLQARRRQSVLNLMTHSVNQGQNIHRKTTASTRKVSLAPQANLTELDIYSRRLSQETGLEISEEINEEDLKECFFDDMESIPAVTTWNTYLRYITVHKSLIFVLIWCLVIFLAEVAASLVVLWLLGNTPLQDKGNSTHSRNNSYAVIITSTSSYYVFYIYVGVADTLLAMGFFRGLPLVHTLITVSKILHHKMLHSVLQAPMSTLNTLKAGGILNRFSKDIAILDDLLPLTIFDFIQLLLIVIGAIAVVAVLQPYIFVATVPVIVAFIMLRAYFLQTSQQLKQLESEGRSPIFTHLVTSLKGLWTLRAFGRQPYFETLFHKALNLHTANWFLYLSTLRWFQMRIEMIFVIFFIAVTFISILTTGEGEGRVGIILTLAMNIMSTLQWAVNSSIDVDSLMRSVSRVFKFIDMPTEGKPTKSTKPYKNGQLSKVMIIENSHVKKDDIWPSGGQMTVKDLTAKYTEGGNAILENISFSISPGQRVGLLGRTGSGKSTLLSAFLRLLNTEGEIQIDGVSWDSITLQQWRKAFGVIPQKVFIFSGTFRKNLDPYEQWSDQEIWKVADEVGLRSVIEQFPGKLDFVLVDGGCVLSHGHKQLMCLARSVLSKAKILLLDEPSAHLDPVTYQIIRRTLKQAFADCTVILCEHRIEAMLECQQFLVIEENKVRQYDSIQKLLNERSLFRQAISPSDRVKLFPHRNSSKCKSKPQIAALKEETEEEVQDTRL

For the molecule `CC(C)N1CCN(C2CCN(c3cc(C(=O)O)nc4c3c(C3CCC3)nn4-c3ccc(F)cc3)CC2)CC1` [compound 879, 3-cyclobutyl-1-(4-fluorophenyl)-4-{4-[4-(propan-2-yl)piperazin-1-yl]piperidin-1-yl}-1H-pyrazolo[3,4-b]pyridine-6-carboxylic acid], at ΔF508-CFTR [1], the “% Activation” value is recorded as 446.25% and the EC50 (as a rule, the concentration at which the effect is half-maximal) was 196 nM. Moreover, on ΔF508-CFTR [2] (setting [3]), the “% Activation” value is listed as 279.6% and the EC50 worked out at 355 nM.

Consider `Cc1nn(-c2ccccc2)c2nc(C(=O)O)cc(N3CCC(C(=O)N(C)C)CC3)c12` [compound 319, 4-[4-(dimethylcarbamoyl)piperidin-1-yl]-3-methyl-1-phenyl-1H-pyrazolo[3,4-b]pyridine-6-carboxylic acid], for which the results for the “% Activation” value at ΔF508-CFTR [1] and at ΔF508-CFTR [2] (setting [4]) were 270.75% and 80.905%, respectively. Also, the EC50 on ΔF508-CFTR [1] was 4170 nM; on ΔF508-CFTR [2] (setting [5]), 2510 nM.

`CCCCOC1CCN(c2cc(C(=O)O)nc3c2c(C(C)C)nn3-c2ccc(F)cc2)CC1` [compound 395, 4-(4-butoxypiperidin-1-yl)-1-(4-fluorophenyl)-3-(propan-2-yl)-1H-pyrazolo[3,4-b]pyridine-6-carboxylic acid]: the results for the “% Activation” value at ΔF508-CFTR [1] and on ΔF508-CFTR [2] (setting [3]) were 480.35% and 223.6%, respectively. Moreover, the EC50 worked out at 549 nM on ΔF508-CFTR [1] and 438 nM at ΔF508-CFTR [2] (setting [3]).

For `CC(C)CN1C[C@@H]2CN(c3cc(C(=O)O)nc4c3c(C3CCC3)nn4-c3ccccc3)C[C@@H]2C1` [compound 692, 3-cyclobutyl-4-[(3aR,6aS)-5-(2-methylpropyl)hexahydropyrrolo[3,4-c]pyrrol-2(1H)-yl]-1-phenyl-1H-pyrazolo[3,4-b]pyridine-6-carboxylic acid], at ΔF508-CFTR [1], the “% Activation” value turned out to be 381.4% and the EC50 amounted to 931 nM. Moreover, on ΔF508-CFTR [2] (setting [3]), the “% Activation” value is 208.1% and the EC50 is 1670 nM.

Consider `COC1CCN(C2CCN(c3cc(C(=O)O)nc4c3c(OC(C)C)nn4-c3ccc(F)cc3)CC2)CC1` [compound 926, 1-(4-fluorophenyl)-4-(4-methoxy[1,4′-bipiperidin]-1′-yl)-3-[(propan-2-yl)oxy]-1H-pyrazolo[3,4-b]pyridine-6-carboxylic acid], for which, on ΔF508-CFTR [1], the “% Activation” value is on record as 486.6% and the EC50 came to 340 nM. On ΔF508-CFTR [2] (setting [6]), the “% Activation” value came out at 240.2% and the EC50 amounted to 521 nM.

With `CCCOCCN1CCN(c2cc(C(=O)O)nc3c2c(C2CCC2)nn3-c2ccccc2)CC1` [compound 555, 3-cyclobutyl-1-phenyl-4-[4-(2-propoxyethyl)piperazin-1-yl]-1H-pyrazolo[3,4-b]pyridine-6-carboxylic acid], at ΔF508-CFTR [1], the “% Activation” value is 310.65% and the EC50 is 169 nM. For the same molecule, at ΔF508-CFTR [2] (setting [3]), the “% Activation” value is recorded as 152% and the EC50 came out at 331 nM.

As for `CC(=O)N1CC[C@@H]2CN(c3cc(C(=O)O)nc4c3c(C3CCC3)nn4-c3ccccc3)CC[C@@H]21` (single isomer, unassigned) [compound 587], on ΔF508-CFTR [1], the “% Activation” value was found to be 360.33% and the EC50 was determined as 2420 nM. Further, at ΔF508-CFTR [2] (setting [3]), the “% Activation” value is recorded as 149.5% and the EC50 came out at 3330 nM.

For the molecule `O=C(O)c1cc(-c2ccc(N3CCOCC3)cc2)c2c(C3CCC3)nn(-c3cccc(C(F)(F)F)c3)c2n1` [compound 354, 3-cyclobutyl-4-[4-(morpholin-4-yl)phenyl]-1-[3-(trifluoromethyl)phenyl]-1H-pyrazolo[3,4-b]pyridine-6-carboxylic acid], the “% Activation” value stood at 429.9% on ΔF508-CFTR [1] and 212.07% at ΔF508-CFTR [2] (setting [4]). The EC50 at ΔF508-CFTR [1] was 323 nM; on ΔF508-CFTR [2] (setting [5]), 450 nM.

Take `O=C(O)c1cc(N2CCC(N3CCOCC3)CC2)c2c(C3CCC3)nn(-c3ccnc(OCc4ccccc4)c3)c2n1` [compound 856, 1-[2-(benzyloxy)pyridin-4-yl]-3-cyclobutyl-4-[4-(morpholin-4-yl)piperidin-1-yl]-1H-pyrazolo[3,4-b]pyridine-6-carboxylic acid]: at ΔF508-CFTR [1], the “% Activation” value worked out at 416.9% and the EC50 was 88.3 nM. Besides, on ΔF508-CFTR [2] (setting [3]), the “% Activation” value is listed as 230.7% and the EC50 amounted to 248 nM.

As to `CC(C)c1nn(-c2cc(F)cc(F)c2)c2nc(C(=O)O)cc(-c3ccc(N4CCC(C#N)CC4)cc3)c12` [compound 282, 4-[4-(4-cyanopiperidin-1-yl)phenyl]-1-(3,5-difluorophenyl)-3-(propan-2-yl)-1H-pyrazolo[3,4-b]pyridine-6-carboxylic acid], the “% Activation” value at ΔF508-CFTR [1] stood at 476.23%; at ΔF508-CFTR [2] (setting [4]) it was 269.33%. In addition, the EC50 is 341 nM at ΔF508-CFTR [1] and 492 nM at ΔF508-CFTR [2] (setting [5]).

On to `CC(C)c1nn(-c2cccc(C(F)(F)F)c2)c2nc(C(=O)O)cc(-c3ccc(N4CCC(C#N)CC4)nc3)c12` [compound 260, 4-[6-(4-cyanopiperidin-1-yl)pyridin-3-yl]-3-(propan-2-yl)-1-[3-(trifluoromethyl)phenyl]-1H-pyrazolo[3,4-b]pyridine-6-carboxylic acid], for which the results for the “% Activation” value at ΔF508-CFTR [1] and at ΔF508-CFTR [2] (setting [4]) were 554.15% and 326.4%, respectively. The EC50 was 517 nM on ΔF508-CFTR [1] and 784 nM on ΔF508-CFTR [2] (setting [5]).

Turning to `CC(=O)N1CCC(F)(COc2cc(C(=O)O)nc3c2c(C2CCC2)nn3-c2ccccc2)CC1` [compound 479, 4-[(1-acetyl-4-fluoropiperidin-4-yl)methoxy]-3-cyclobutyl-1-phenyl-1H-pyrazolo[3,4-b]pyridine-6-carboxylic acid], on ΔF508-CFTR [1], the “% Activation” value is 317.77% and the EC50 is 1850 nM. On ΔF508-CFTR [2] (setting [3]), the “% Activation” value amounted to 114.41% and the EC50 was 1850 nM.

For `CN1C(=O)CO[C@H]2CN(c3cc(C(=O)O)nc4c3c(C3CCC3)nn4-c3ccccc3)C[C@@H]21` [compound 516, 3-cyclobutyl-4-[(4aS,7aS)-4-methyl-3-oxohexahydropyrrolo[3,4-b][1,4]oxazin-6 (2H)-yl]-1-phenyl-1H-pyrazolo[3,4-b]pyridine-6-carboxylic acid], at ΔF508-CFTR [1], the “% Activation” value was found to be 275.5% and the EC50 is 723 nM. In addition, at ΔF508-CFTR [2] (setting [3]), the “% Activation” value was found to be 123.4% and the EC50 was found to be 1110 nM.

Take `CC(C)c1nn(-c2cccc(N3CCOCC3)c2)c2nc(C(=O)O)cc(-c3ccc(N4CCOCC4)cc3)c12` [compound 121, 1-[3-(morpholin-4-yl)phenyl]-4-[4-(morpholin-4-yl)phenyl]-3-(propan-2-yl)-1H-pyrazolo[3,4-b]pyridine-6-carboxylic acid]: the “% Activation” value was determined as 603.1% at ΔF508-CFTR [1] and 401.5% on ΔF508-CFTR [2] (setting [4]). Also, the EC50 was found to be 758 nM on ΔF508-CFTR [1] and 528 nM on ΔF508-CFTR [2] (setting [5]).

On to `Cc1cccc(-n2nc(C(C)C)c3c(N4CCC(S(C)(=O)=O)CC4)cc(C(=O)O)nc32)c1` [compound 257, 4-[4-(methanesulfonyl)piperidin-1-yl]-1-(3-methylphenyl)-3-(propan-2-yl)-1H-pyrazolo[3,4-b]pyridine-6-carboxylic acid], for which the “% Activation” value at ΔF508-CFTR [1] is 440.2%; at ΔF508-CFTR [2] (setting [4]), 260.4%. Also, the EC50 on ΔF508-CFTR [1] turned out to be 788 nM; at ΔF508-CFTR [2] (setting [5]), 2530 nM.

For `CC(=O)Nc1ccc(-c2cc(C(=O)O)nc3c2c(C(C)C)nn3C2CCCCC2)cc1` [compound 171, 4-(4-acetamidophenyl)-1-cyclohexyl-3-(propan-2-yl)-1H-pyrazolo[3,4-b]pyridine-6-carboxylic acid], the “% Activation” value stood at 450.73% at ΔF508-CFTR [1] and 199.67% at ΔF508-CFTR [2] (setting [4]). In addition, the EC50 on ΔF508-CFTR [1] turned out to be 1070 nM; at ΔF508-CFTR [2] (setting [5]) it was 1190 nM.

For the molecule `O=C(O)c1cc(N2CCC(N3CCOCC3)CC2)c2c(C3CCC3)nn(-c3ccc(OCCF)nc3)c2n1` [compound 917], at ΔF508-CFTR [1], the “% Activation” value is reported as 306.95% and the EC50 is 1670 nM. For the same molecule, at ΔF508-CFTR [2] (setting [6]), the “% Activation” value is listed as 116.67% and the EC50 was determined as 1660 nM.

Turning to `Cc1nn(-c2ccccc2)c2nc(C(=O)O)cc(N3CCC(NS(C)(=O)=O)CC3)c12` [compound 303, 4-{4-[(methanesulfonyl)amino]piperidin-1-yl}-3-methyl-1-phenyl-1H-pyrazolo[3,4-b]pyridine-6-carboxylic acid], the results for the “% Activation” value at ΔF508-CFTR [1] and at ΔF508-CFTR [2] (setting [4]) were 123.5% and 10.878%, respectively. The EC50 at ΔF508-CFTR [1] and at ΔF508-CFTR [2] (setting [5]) was 7500 nM each time.

Take `O=C(O)c1cc(N2CCC(F)(CO)CC2)c2c(C3CCC3)nn(-c3ccccc3)c2n1` [compound 517, 3-cyclobutyl-4-[4-fluoro-4-(hydroxymethyl)piperidin-1-yl]-1-phenyl-1H-pyrazolo[3,4-b]pyridine-6-carboxylic acid]: on ΔF508-CFTR [1], the “% Activation” value is recorded as 303.2% and the EC50 was 575 nM. Moreover, at ΔF508-CFTR [2] (setting [3]), the “% Activation” value is recorded as 82.63% and the EC50 worked out at 646 nM.

With `CC(C)c1nn(C2CCN(CC(F)(F)F)CC2)c2nc(C(=O)O)cc(-c3ccc(N4CCOCC4)cc3)c12` [compound 117, 4-[4-(morpholin-4-yl)phenyl]-3-(propan-2-yl)-1-[1-(2,2,2-trifluoroethyl)piperidin-4-yl]-1H-pyrazolo[3,4-b]pyridine-6-carboxylic acid], the “% Activation” value at ΔF508-CFTR [1] turned out to be 229.45%; at ΔF508-CFTR [2] (setting [4]) it was 70.77%. Besides, the results for the EC50 on ΔF508-CFTR [1] and at ΔF508-CFTR [2] (setting [5]) were 765 nM and 1100 nM, respectively.
